Laboratory results taken from publication PMC5578999, “Novel quinolone chalcones targeting colchicine-binding pocket kill multidrug-resistant cancer cells by inhibiting tubulin activity and MRP1 function” (Scientific Reports, 2017).

Key:
Assay in all cases: NCI-60 SRB screen
Assay type in all cases: cell-based
A549/ATCC = tested on: A549/ATCC
HCC-2998 = tested on: HCC-2998
IGROV1 = tested on: IGROV1
MCF7 = tested on: MCF7
MDA-MB-435 = tested on: MDA-MB-435
NCI-H460 = tested on: NCI-H460
SR = tested on: SR
SW-620 = tested on: SW-620
T-47D = tested on: T-47D
U251 = tested on: U251
UACC-257 = tested on: UACC-257
UACC-62 = tested on: UACC-62
[1] = Homo sapiens, read-out: LC50 (the source's name)

For `COc1ccc2[nH]c(=O)c(/C=C/C(=O)c3ccccc3OC)cc2c1` [CTR-20, (E)-6-Methoxy-3-(3-(2-methoxyphenyl)-3-oxoprop-1-enyl) quinolin-2(1H)-one], the Log10GI50 (A549/ATCC) was -5.68 Molar, the Log10LC50 (A549/ATCC) was -4.42 Molar and the Log10TGI (A549/ATCC) was -4.98 Molar. The TGI (A549/ATCC) was 1.04E-5 Molar, the “Growth Percent” value (A549/ATCC; 1.00E-5 Molar) was 10.42% and the GI50 (A549/ATCC; Homo sapiens) was 2090 nM. The CC50 (A549/ATCC; [1]) was 37900 nM, the “Percent Growth” value (A549/ATCC; Log10 Concentration -4.0) was -88% and the “Percent Growth” value (A549/ATCC; Log10 Concentration -5.0) was 2%. For the same compound, the “Percent Growth” value (A549/ATCC; Log10 Concentration -6.0) was 73%, the “Percent Growth” value (A549/ATCC; Log10 Concentration -7.0) was 114% and the “Percent Growth” value (A549/ATCC; Log10 Concentration -8.0) was 106%. It also gave a Log10GI50 (HCC-2998) of -5.80 Molar, a Log10LC50 (HCC-2998) of -5.23 Molar and a Log10TGI (HCC-2998) of -5.52 Molar. For the same compound, the TGI (HCC-2998) was 3.03E-6 Molar, the “Growth Percent” value (HCC-2998; 1.00E-5 Molar) was 23.11% and the GI50 (HCC-2998; Homo sapiens) was 1570 nM. For the same compound, the CC50 (HCC-2998; [1]) was 5850 nM, the “Percent Growth” value (HCC-2998; Log10 Concentration -4.0) was -91% and the “Percent Growth” value (HCC-2998; Log10 Concentration -5.0) was -91%. For the same compound, the “Percent Growth” value (HCC-2998; Log10 Concentration -6.0) was 84%, the “Percent Growth” value (HCC-2998; Log10 Concentration -7.0) was 97% and the “Percent Growth” value (HCC-2998; Log10 Concentration -8.0) was 99%. For the same compound, the Log10GI50 (IGROV1) was -6.24 Molar, the Log10LC50 (IGROV1) was over -4.00 Molar and the Log10TGI (IGROV1) was -4.77 Molar. The TGI (IGROV1) was 1.70E-5 Molar, the “Growth Percent” value (IGROV1; 1.00E-5 Molar) was 14.55% and the GI50 (IGROV1; Homo sapiens, IGROV-1) was 582 nM. For the same compound, the CC50 (IGROV1; Homo sapiens, IGROV-1, read-out: LC50 (the source's name)) was over 100000 nM, the “Percent Growth” value (IGROV1; Log10 Concentration -4.0) was -27% and the “Percent Growth” value (IGROV1; Log10 Concentration -5.0) was 8%. The “Percent Growth” value (IGROV1; Log10 Concentration -6.0) was 40%, the “Percent Growth” value (IGROV1; Log10 Concentration -7.0) was 82% and the “Percent Growth” value (IGROV1; Log10 Concentration -8.0) was 99%. The Log10GI50 (MCF7) was -6.51 Molar, the Log10LC50 (MCF7) was over -4.00 Molar and the Log10TGI (MCF7) was -5.13 Molar. For the same compound, the TGI (MCF7) was 7.48E-6 Molar, the “Growth Percent” value (MCF7; 1.00E-5 Molar) was 10.02% and the GI50 (MCF7; Homo sapiens) was 312 nM. For the same compound, the CC50 (MCF7; [1]) was over 100000 nM, the “Percent Growth” value (MCF7; Log10 Concentration -4.0) was -44% and the “Percent Growth” value (MCF7; Log10 Concentration -5.0) was -2%. The “Percent Growth” value (MCF7; Log10 Concentration -6.0) was 16%, the “Percent Growth” value (MCF7; Log10 Concentration -7.0) was 83% and the “Percent Growth” value (MCF7; Log10 Concentration -8.0) was 86%. It also gave a Log10GI50 (MDA-MB-435) of -7.25 Molar, a Log10LC50 (MDA-MB-435) of -4.66 Molar and a Log10TGI (MDA-MB-435) of -6.56 Molar. For the same compound, the TGI (MDA-MB-435) was 2.75E-7 Molar, the “Growth Percent” value (MDA-MB-435; 1.00E-5 Molar) was -10.05% and the GI50 (MDA-MB-435; Homo sapiens) was 56.4 nM. For the same compound, the CC50 (MDA-MB-435; [1]) was 21900 nM, the “Percent Growth” value (MDA-MB-435; Log10 Concentration -4.0) was -97% and the “Percent Growth” value (MDA-MB-435; Log10 Concentration -5.0) was -26%. The “Percent Growth” value (MDA-MB-435; Log10 Concentration -6.0) was -46%, the “Percent Growth” value (MDA-MB-435; Log10 Concentration -7.0) was 36% and the “Percent Growth” value (MDA-MB-435; Log10 Concentration -8.0) was 92%. It also gave a Log10GI50 (NCI-H460) of -6.42 Molar, a Log10LC50 (NCI-H460) of -4.44 Molar and a Log10TGI (NCI-H460) of -5.65 Molar. The TGI (NCI-H460) was 2.25E-6 Molar, the “Growth Percent” value (NCI-H460; 1.00E-5 Molar) was 1.79% and the GI50 (NCI-H460; Homo sapiens) was 380 nM. The CC50 (NCI-H460; [1]) was 36700 nM, the “Percent Growth” value (NCI-H460; Log10 Concentration -4.0) was -71% and the “Percent Growth” value (NCI-H460; Log10 Concentration -5.0) was -22%. For the same compound, the “Percent Growth” value (NCI-H460; Log10 Concentration -6.0) was 12%, the “Percent Growth” value (NCI-H460; Log10 Concentration -7.0) was 102% and the “Percent Growth” value (NCI-H460; Log10 Concentration -8.0) was 105%. For the same compound, the Log10GI50 (SR) was -7.18 Molar, the Log10LC50 (SR) was over -4.00 Molar and the Log10TGI (SR) was -4.99 Molar. The TGI (SR) was 1.03E-5 Molar, the “Growth Percent” value (SR; 1.00E-5 Molar) was 2.69% and the GI50 (SR; Homo sapiens) was 65.6 nM. The LC50 (50% lethal concentration) (SR; Homo sapiens) was over 100000 nM, the “Percent Growth” value (SR; Log10 Concentration -4.0) was -13% and the “Percent Growth” value (SR; Log10 Concentration -6.0) was 21%. For the same compound, the “Percent Growth” value (SR; Log10 Concentration -7.0) was 41%, the “Percent Growth” value (SR; Log10 Concentration -8.0) was 92% and the Log10GI50 (SW-620) was -6.47 Molar. The Log10LC50 (SW-620) was -4.31 Molar, the Log10TGI (SW-620) was -5.65 Molar and the TGI (SW-620) was 2.24E-6 Molar. The “Growth Percent” value (SW-620; 1.00E-5 Molar) was 8.40%, the GI50 (SW-620; Homo sapiens) was 335 nM and the LC50 (50% lethal concentration) (SW-620; Homo sapiens) was 49400 nM. The “Percent Growth” value (SW-620; Log10 Concentration -4.0) was -58%, the “Percent Growth” value (SW-620; Log10 Concentration -5.0) was -31% and the “Percent Growth” value (SW-620; Log10 Concentration -6.0) was 17%. The “Percent Growth” value (SW-620; Log10 Concentration -7.0) was 87%, the “Percent Growth” value (SW-620; Log10 Concentration -8.0) was 98% and the Log10GI50 (T-47D) was -5.98 Molar. It also gave a Log10LC50 (T-47D) of -4.32 Molar, a Log10TGI (T-47D) of -4.93 Molar and a TGI (T-47D) of 1.18E-5 Molar. For the same compound, the “Growth Percent” value (T-47D; 1.00E-5 Molar) was -2.02%, the GI50 (T-47D; Homo sapiens, T47D) was 1060 nM and the CC50 (T-47D; Homo sapiens, T47D, read-out: LC50 (the source's name)) was 47900 nM. For the same compound, the “Percent Growth” value (T-47D; Log10 Concentration -4.0) was -76%, the “Percent Growth” value (T-47D; Log10 Concentration -5.0) was 6% and the “Percent Growth” value (T-47D; Log10 Concentration -6.0) was 51%. The “Percent Growth” value (T-47D; Log10 Concentration -7.0) was 90%, the “Percent Growth” value (T-47D; Log10 Concentration -8.0) was 84% and the Log10GI50 (U251) was -6.28 Molar. The Log10LC50 (U251) was -5.38 Molar, the Log10TGI (U251) was -5.77 Molar and the TGI (U251) was 1.70E-6 Molar. For the same compound, the “Growth Percent” value (U251; 1.00E-5 Molar) was 5.14%, the GI50 (U251; Homo sapiens, U-251) was 521 nM and the LC50 (U251; Homo sapiens, U-251) was 4210 nM. For the same compound, the “Percent Growth” value (U251; Log10 Concentration -4.0) was -99%, the “Percent Growth” value (U251; Log10 Concentration -5.0) was -98% and the “Percent Growth” value (U251; Log10 Concentration -6.0) was 29%. The “Percent Growth” value (U251; Log10 Concentration -7.0) was 103%, the “Percent Growth” value (U251; Log10 Concentration -8.0) was 102% and the Log10GI50 (UACC-257) was -5.86 Molar. It also gave a Log10LC50 (UACC-257) of -5.17 Molar, a Log10TGI (UACC-257) of -5.52 Molar and a TGI (UACC-257) of 3.05E-6 Molar. The “Growth Percent” value (UACC-257; 1.00E-5 Molar) was 37.62%, the GI50 (UACC-257; Homo sapiens) was 1380 nM and the CC50 (UACC-257; [1]) was 6750 nM. For the same compound, the “Percent Growth” value (UACC-257; Log10 Concentration -4.0) was -100%, the “Percent Growth” value (UACC-257; Log10 Concentration -5.0) was -75% and the “Percent Growth” value (UACC-257; Log10 Concentration -6.0) was 70%. For the same compound, the “Percent Growth” value (UACC-257; Log10 Concentration -7.0) was 101%, the “Percent Growth” value (UACC-257; Log10 Concentration -8.0) was 98% and the Log10GI50 (UACC-62) was -6.32 Molar. The Log10LC50 (UACC-62) was -4.75 Molar, the Log10TGI (UACC-62) was -5.53 Molar and the TGI (UACC-62) was 2.97E-6 Molar. For the same compound, the “Growth Percent” value (UACC-62; 1.00E-5 Molar) was 25.73%, the GI50 (UACC-62; Homo sapiens) was 478 nM and the CC50 (UACC-62; [1]) was 17900 nM. The “Percent Growth” value (UACC-62; Log10 Concentration -4.0) was -95%, the “Percent Growth” value (UACC-62; Log10 Concentration -5.0) was -35% and the “Percent Growth” value (UACC-62; Log10 Concentration -6.0) was 31%. For the same compound, the “Percent Growth” value (UACC-62; Log10 Concentration -7.0) was 90% and the “Percent Growth” value (UACC-62; Log10 Concentration -8.0) was 94%.
